Experimental data taken from patent EP4806898A1, “HETEROARYL DERIVATIVE COMPOUND AND USE THEREOF” (Voronoi Inc., priority 2023, dated 2025).

Legend:
[1] = target: T1, recombinant USP1 protein (Homo sapiens, UniProt O94782, DEL125-138/DEL229-408/DEL608-737); experiment: Binding affinity to recombinant USP1 protein by differential scanning fluorimetry; conditions: compound 100 µM; 0.03 mg/mL USP1 (Δ1-66, Δ125-138, Δ229-408, Δ608-737); Tm with compound minus Tm with DMSO; read-out: ΔTm (°C)
T1 sequence (O94782 with tags, fused parts or gaps DEL125-138/DEL229-408/DEL608-737): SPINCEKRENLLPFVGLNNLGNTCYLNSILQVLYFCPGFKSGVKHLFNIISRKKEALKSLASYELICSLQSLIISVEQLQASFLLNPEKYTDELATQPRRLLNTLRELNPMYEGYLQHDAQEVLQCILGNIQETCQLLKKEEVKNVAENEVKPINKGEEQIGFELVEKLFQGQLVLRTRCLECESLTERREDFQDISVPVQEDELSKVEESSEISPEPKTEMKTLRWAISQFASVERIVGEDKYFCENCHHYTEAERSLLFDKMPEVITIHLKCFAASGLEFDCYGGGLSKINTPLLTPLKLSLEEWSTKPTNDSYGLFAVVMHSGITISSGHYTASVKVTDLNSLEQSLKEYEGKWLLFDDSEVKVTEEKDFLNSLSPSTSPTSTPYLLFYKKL
Procedure, shortened: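 Thermal shift readout: ΔTm is the compound-well melting temperature less the DMSO-well value, measured by real-time PCR. Compounds tested at 100 µM final against 0.03 mg/mL truncated USP1 (Δ1-66, Δ125-138, Δ229-408, Δ608-737) in pH 8.0 Tris buffer containing 150 mM NaCl, 2% glycerol, 1 mM DTT.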

[2] = system: UWB1.289 cells; experiment: Cell proliferation inhibitory activity in BRCA1/2-mutant or HRD-positive cells (Cell Titer-Glo); type: cell-based; conditions: UWB1289; UWB1.289 cells, 144 hours after compound treatment, Cell Titer-Glo, 1.5 nM to 10 µM; read-out: GI50 UWB1.289 BRCA1 mut
Procedure, shortened: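 GI50 from CellTiter-Glo luminescence after 144 h compound exposure at 37 °C. Cells seeded at 1,000 per well in MEBM/RPMI1640 mix 16–24 h beforehand; […] from 10 µM down to 1.5 nM final (3-fold steps).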

SMILES	ΔTm at 100 µM [1] [°C]	GI50 [2] [nM]
COc1ncnc(C2CC2)c1-c1ncc2cc(C(=O)N3CCN4CCCC4C3)n(Cc3ccc(-c4nc(C(F)(F)F)cn4C(C)C)cc3)c2n1 (stereo not drawn) [Example 55, (2-(4-cyclopropyl-6-methoxypyrimid in-5-yl)-7-(4-(1-isopropyl-4-(trifluoromethyl)-1H-imidazol-2-yl)benzyl)-7H-pyrrolo[2,3-d]pyrimidin-6-yl) (hexahydrop yrrolo[1,2-a]pyrazin-2 (1H) - yl)methanone]	> 5	100 to 500
COc1ncnc(C2CC2)c1-c1ncc2cc(C(=O)N3CCOC4(CCC4)C3)n(Cc3ccc(-c4nc(C(F)(F)F)cn4C(C)C)cc3)c2n1 [Example 56, (2-(4-cyclopropyl-6-methoxypyrimid in-5-yl)-7-(4-(1-isopropyl-4-(trifluoromethyl)-1H-imidazol-2-yl)benzyl)-7H-pyrrolo[2,3-d]pyrimidin-6-yl) (5-oxa-8-azaspiro[3.5]nonan-8-yl)methanone]	> 5	100 to 500
CCN1CCN(C(=O)c2cc3cnc(-c4c(OC)ncnc4C4CC4)nc3n2Cc2ccc(-c3nc(C(F)(F)F)cn3C(C)C)cc2)CC1 [Example 57, (2-(4-cyclopropyl-6-methoxypyrimid in-5-yl)-7-(4-(1-isopropyl-4-(trifluoromethyl)-1H-imidazol-2-yl)benzyl)-7H-pyrrolo[2,3-d]pyrimidin-6-yl) (4-ethylpiperazin-1-yl)methanone]	> 5	< 100
COc1ncnc(C2CC2)c1-c1ncc2cc(C(=O)NC[C@H]3CCCN3)n(Cc3ccc(-c4nc(C(F)(F)F)cn4C(C)C)cc3)c2n1 [Example 58, (R) -2-(4-cyclopropyl-6-methoxypyrimidin-5-yl)-7-(4-(1-isopropyl-4-(trifluoromethyl)-1H-imidazol-2-yl)benzyl)-N-(pyrrolidin-2-ylmethyl)-7H-pyrrolo[2,3-d]pyrimidine-6-carboxamide]	> 5	< 100
COc1ncnc(C2CC2)c1-c1ncc2cc(C(=O)NCC(C)(C)O)n(Cc3ccc(-c4nc(C(F)(F)F)cn4C(C)C)cc3)c2n1 [Example 61, 2-(4-cyclopropyl-6-methoxypyrimidin-5-yl)-N-(2-hydroxy-2-methylpropyl)-7-(4-(1-isopropyl-4-(trifluoromethyl)-1H-imidazol-2-yl)benzyl)-7H-pyrrolo[2,3-d]pyrimidine-6-carboxamide]	> 5	< 100
COc1ncnc(C2CC2)c1-c1ncc2cc(C(=O)N3CCCC(O)C3)n(Cc3ccc(-c4nc(C(F)(F)F)cn4C(C)C)cc3)c2n1 (stereo not drawn) [Example 67, (2-(4-cyclopropyl-6-methoxypyrimid in-5-yl)-7-(4-(1-isopropyl-4-(trifluoromethyl)-1H-imidazol-2-yl)benzyl)-7H-pyrrolo[2,3-d]pyrimidin-6-yl) (3-hydroxypiperid in-1-yl)methanone]	> 5	< 100
CCn1cc(C(F)(F)F)nc1-c1ccc(Cn2c(C(=O)NC)cc3cnc(-c4c(OC)ncnc4C4CC4)nc32)cc1 [Example 68, 2-(4-cyclopropyl-6-methoxypyrimidin-5-yl)-7-(4-(1-ethyl-4-(trifluoromethyl)-1H-imidazol-2-yl)benzyl)-N-methyl-7H-pyrrolo[2,3-d]pyrimidine-6-carboxamide]	> 5	< 100
COc1ncnc(C2CC2)c1-c1ncc2cc(C(=O)N(C)CC(F)(F)F)n(Cc3ccc(-c4nc(C(F)(F)F)cn4C(C)C)cc3)c2n1 [Example 70, 2-(4-cyclopropyl-6-methoxypyrimidin-5-yl)-7-(4-(1-isopropyl-4-(trifluoromethyl)-1H-imidazol-2-yl)benzyl)-N-methyl-N-(2,2,2-trifluoroethyl)-7H-pyrrolo[2,3-d]pyrimidine-6-carboxamide]	> 5	100 to 500
COCC1CN(C(=O)c2cc3cnc(-c4c(OC)ncnc4C4CC4)nc3n2Cc2ccc(-c3nc(C(F)(F)F)cn3C(C)C)cc2)C1 [Example 71, (2-(4-cyclopropyl-6-methoxypyrimid in-5-yl)-7-(4-(1-isopropyl-4-(trifluoromethyl)-1H-imidazol-2-yl)benzyl)-7H-pyrrolo[2,3-d]pyrimidin-6-yl) (3-(methoxymethyl)azetidin-1-yl)methanone]	> 5	< 100
COc1ncnc(C2CC2)c1-c1ncc2cc(C(=O)N3CCC(F)(F)C3)n(Cc3ccc(-c4nc(C(F)(F)F)cn4C(C)C)cc3)c2n1 [Example 73, (2-(4-cyclopropyl-6-methoxypyrimid in-5-yl)-7-(4-(1-isopropyl-4-(trifluoromethyl)-1H-imidazol-2-yl)benzyl)-7H-pyrrolo[2,3-d]pyrimidin-6-yl)(3,3-difluoropyrrolidin-1-yl)methanone]	> 5	100 to 500
COc1ncnc(C2CC2)c1-c1ncc2cc(C(=O)N3CC(CS(C)(=O)=O)C3)n(Cc3ccc(-c4nc(C(F)(F)F)cn4C(C)C)cc3)c2n1 [Example 75, (2-(4-cyclopropyl-6-methoxypyrimid in-5-yl)-7-(4-(1-isopropyl-4-(trifluoromethyl)-1H-imidazol-2-yl)benzyl)-7H-pyrrolo[2,3-d]pyrimidin-6-yl) (3-((methylsulfonyl)methyl)azetidin-1-yl)methanone]	> 5	100 to 500
COc1ncnc(C2CC2)c1-c1ncc2cc(C(=O)NC3(C)CC3)n(Cc3ccc(-c4nc(C(F)(F)F)cn4C(C)C)cc3)c2n1 [Example 79, 2-(4-cyclopropyl-6-methoxypyrimidin-5-yl)-7-(4-(1-isopropyl-4-(trifluoromethyl)-1H-imidazol-2-yl)benzyl)-N-(1-methylcyclopropyl)-7H-pyrrolo[2,3-d]pyrimidine-6-carboxamide]	> 5	100 to 500

Further lines, with some results ahead:

ΔTm at 100 µM [1] [°C]	SMILES	GI50 [2] [nM]
> 5	C#CCNC(=O)c1cc2cnc(-c3c(OC)ncnc3C3CC3)nc2n1Cc1ccc(-c2nc(C(F)(F)F)cn2C(C)C)cc1 [Example 60, 2-(4-cyclopropyl-6-methoxypyrimidin-5-yl)-7-(4-(1-isopropyl-4-(trifluoromethyl)-1H-imidazol-2-yl)benzyl)-N-(prop-2-yn-1-yl)-7H-pyrrolo[2,3-d]pyrimidine-6-carboxamide]	< 100
> 5	C=CCCNC(=O)c1cc2cnc(-c3c(OC)ncnc3C3CC3)nc2n1Cc1ccc(-c2nc(C(F)(F)F)cn2C(C)C)cc1 [Example 64, N-(but-3-en-1-yl)-2-(4-cyclopropyl-6-methoxypyrimidin-5-yl)-7-(4-(1-isopropyl-4-(trifluoromethyl)-1H-imidazol-2-yl)benzyl)-7H-pyrrolo[2,3-d]pyrimidine-6-carboxamide]	100 to 500
> 5	COc1ncnc(C2CC2)c1-c1ncc2cc(C(=O)N3C[C@H]4C[C@@H]3CO4)n(Cc3ccc(-c4nc(C(F)(F)F)cn4C(C)C)cc3)c2n1 [Example 65, ((1R,4R)-2-oxa-5-azabicyclo[2.2 .1]heptan-5-yl)(2-(4-cyclopropyl-6-methoxypyrimidin-5-yl)-7-(4-(1-isopropyl-4-(trifluoromethyl)-1H-imidazol-2-yl)benzyl)-7H-pyrrolo[2,3-d]pyrimidin-6-yl)methanone]	100 to 500
> 5	COc1ncnc(C2CC2)c1-c1ncc2cc(C(=O)NC[C@@H]3CCO3)n(Cc3ccc(-c4nc(C(F)(F)F)cn4C(C)C)cc3)c2n1 [Example 66, (S)-2-(4-cyclopropyl-6-methoxypyrimidin-5-yl)-7-(4-(1-isopropyl-4-(trifluoromethyl)-1H-imidazol-2-yl)benzyl)-N-(oxetan-2-ylmethyl)-7H-pyrrolo[2,3-d]pyrimidine-6-carboxamide]	< 100
> 5	COc1ncnc(C2CC2)c1-c1ncc2cc(C(=O)NC3CCN(C)CC3)n(Cc3ccc(-c4nc(C(F)(F)F)cn4C(C)C)cc3)c2n1 [Example 69, 2-(4-cyclopropyl-6-methoxypyrimidin-5-yl)-7-(4-(1-isopropyl-4-(trifluoromethyl)-1H-imidazol-2-yl)benzyl)-N-(1-methylpiperidin-4-yl)-7H-pyrrolo[2,3-d]pyrimidine-6-carboxamide]	< 100
> 5	COc1ncnc(C2CC2)c1-c1ncc2cc(C(=O)NC3CCS(=O)(=O)C3)n(Cc3ccc(-c4nc(C(F)(F)F)cn4C(C)C)cc3)c2n1 (stereo not drawn) [Example 78, 2-(4-cyclopropyl-6-methoxypyrimidin-5-yl)-N-(1,1-dioxidotetrahydrothiophen-3-yl)-7-(4-(1-isopropyl-4-(trifluoromethyl)-1H-imidazol-2-yl)benzyl)-7H-pyrrolo[2,3-d]pyrimidine-6-carboxamide]	100 to 500
